Experimental data reported in ChEMBL document CHEMBL2163236, “7-Oxo-[1,4]oxazino[2,3,4-ij]quinoline-6-carboxamides as selective CB(2) cannabinoid receptor ligands: structural investigations around a novel class of full agonists” (J Med Chem, 2012).
pIC50, pKi: −log10 of the molar value.

target: Cannabinoid receptor 1 (Homo sapiens, UniProt P21554); test: Displacement of [3H]CP-55940 from human recombinant CB1 receptor expressed in CHO cell membranes incubated for 90 mins by scintillation counting
Sequence (P21554 whole entry): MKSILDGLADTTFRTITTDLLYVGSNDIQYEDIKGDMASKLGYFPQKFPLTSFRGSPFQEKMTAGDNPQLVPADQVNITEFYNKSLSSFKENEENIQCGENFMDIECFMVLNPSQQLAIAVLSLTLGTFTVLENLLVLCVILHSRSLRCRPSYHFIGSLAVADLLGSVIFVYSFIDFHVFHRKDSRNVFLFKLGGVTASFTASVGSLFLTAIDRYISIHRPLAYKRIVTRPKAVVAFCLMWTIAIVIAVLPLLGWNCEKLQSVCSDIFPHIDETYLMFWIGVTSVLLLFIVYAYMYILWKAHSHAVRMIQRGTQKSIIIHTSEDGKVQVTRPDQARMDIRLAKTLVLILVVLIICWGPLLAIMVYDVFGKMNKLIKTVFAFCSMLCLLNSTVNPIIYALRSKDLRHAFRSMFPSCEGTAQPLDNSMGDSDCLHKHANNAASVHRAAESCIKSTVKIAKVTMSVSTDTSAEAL

Q: How did the pKi turn out when `O=C(NC12CC3CC(CC(C3)C1)C2)c1cn2c3c(cccc3c1=O)OCC2C1CC1` (racemic) was run?
A: Its pKi is 6.41.

Q: `CCCC1COc2cccc3c(=O)c(C(=O)NC45CC6CC(CC(C6)C4)C5)cn1c23` (racemic) was tested. Which pKi did it give?
A: Its pKi is 6.67.

Q: `CCC1COc2c(F)c(F)cc3c(=O)c(C(=O)NC45CC6CC(CC(C6)C4)C5)cn1c23` (racemic) was tested. Which pKi did it give?
A: The pKi was 5.76.

Q: How did the pKi turn out when `O=C(NC1CCCCCC1)c1cn2c3c(cccc3c1=O)OCC2c1ccccc1` (racemic) was run?
A: Its pKi is 6.51.

Q: With `CCC1COc2cccc3c(=O)c(C(=O)N(C(C)C)C(C)C)cn1c23` (racemic) as the molecule, how does the pKi read?
A: The pKi was < 5.00.

Q: How did the pKi turn out when `CC12CC3CC(C)(C1)CC(NC(=O)c1cn4c5c(cccc5c1=O)OCC4c1ccccc1)(C3)C2` (racemic) was run?
A: Its pKi is 6.34.

Q: With `O=C(NC12CC3CC(CC(C3)C1)C2)c1cn2c3c(cccc3c1=O)OC(c1ccccc1)C2c1ccccc1` (racemic) as the molecule, how does the pKi read?
A: Its pKi is < 5.00.

Q: `C[C@H]1COc2cccc3c(=O)c(C(=O)NC45CC6CC(CC(C6)C4)C5)cn1c23` was tested. Which pKi did it give?
A: Its pKi is < 5.00.

Q: `CCC1COc2cccc3c(=O)c(C(=O)NC(C)CCC(C)C)cn1c23` (racemic) was tested. Which pKi did it give?
A: The pKi was < 5.00.

target: T1, Cannabinoid receptor 2 (Homo sapiens, UniProt P34972); test: Agonist activity at human recombinant CB2 receptor expressed in CHO cell membranes assessed as inhibition of forskolin-induced cAMP accumulation; type: functional, cell-based
T1 sequence (P34972 whole entry): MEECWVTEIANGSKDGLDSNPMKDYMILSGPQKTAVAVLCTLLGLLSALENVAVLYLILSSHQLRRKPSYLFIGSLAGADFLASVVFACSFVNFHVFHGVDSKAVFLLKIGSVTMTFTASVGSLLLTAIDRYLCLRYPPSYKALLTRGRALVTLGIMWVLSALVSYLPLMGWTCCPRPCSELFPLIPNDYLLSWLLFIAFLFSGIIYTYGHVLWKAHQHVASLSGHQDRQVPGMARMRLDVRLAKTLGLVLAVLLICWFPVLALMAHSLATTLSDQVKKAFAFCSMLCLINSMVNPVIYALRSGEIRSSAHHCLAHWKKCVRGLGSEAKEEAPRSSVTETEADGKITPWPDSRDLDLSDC

Q: `O=C(NC12CC3CC(CC(C3)C1)C2)c1cn2c3c(cccc3c1=O)OCC2C1CC1` (racemic) was tested. Which pIC50 did it give?
A: The pIC50 was 7.49.

Q: With `CCCC1COc2cccc3c(=O)c(C(=O)NC45CC6CC(CC(C6)C4)C5)cn1c23` (racemic) as the molecule, how does the pIC50 read?
A: The pIC50 was 7.82.

Q: How did the pIC50 turn out when `CCC1COc2c(F)c(F)cc3c(=O)c(C(=O)NC45CC6CC(CC(C6)C4)C5)cn1c23` (racemic) was run?
A: Its pIC50 is 6.84.

Q: How did the pIC50 turn out when `O=C(NC1CCCCCC1)c1cn2c3c(cccc3c1=O)OCC2c1ccccc1` (racemic) was run?
A: The pIC50 was 8.28.

Q: How did the pIC50 turn out when `CCC1COc2cccc3c(=O)c(C(=O)N(C(C)C)C(C)C)cn1c23` (racemic) was run?
A: Its pIC50 is 6.37.

Q: `CC12CC3CC(C)(C1)CC(NC(=O)c1cn4c5c(cccc5c1=O)OCC4c1ccccc1)(C3)C2` (racemic) was tested. Which pIC50 did it give?
A: Its pIC50 is 7.74.

Q: With `C[C@H]1COc2cccc3c(=O)c(C(=O)NC45CC6CC(CC(C6)C4)C5)cn1c23` as the molecule, how does the pIC50 read?
A: Its pIC50 is 6.60.

Q: `CCC1COc2cccc3c(=O)c(C(=O)NC(C)CCC(C)C)cn1c23` (racemic) was tested. Which pIC50 did it give?
A: The pIC50 was 7.21.

Q: With `Cc1cc2c3c(c1)c(=O)c(C(=O)NC14CC5CC(CC(C5)C1)C4)cn3C(c1ccccc1)CO2` (racemic) as the molecule, how does the pIC50 read?
A: Its pIC50 is 6.33.

target: T1, Cannabinoid receptor 2; test: Displacement of [3H]CP-55940 from human recombinant CB2 receptor expressed in CHO cell membranes incubated for 60 mins by scintillation counting

Q: `O=C(NC12CC3CC(CC(C3)C1)C2)c1cn2c3c(cccc3c1=O)OCC2C1CC1` (racemic) was tested. Which pKi did it give?
A: Its pKi is 8.05.

Q: With `CCCC1COc2cccc3c(=O)c(C(=O)NC45CC6CC(CC(C6)C4)C5)cn1c23` (racemic) as the molecule, how does the pKi read?
A: The pKi was 8.63.

Q: How did the pKi turn out when `CCC1COc2c(F)c(F)cc3c(=O)c(C(=O)NC45CC6CC(CC(C6)C4)C5)cn1c23` (racemic) was run?
A: Its pKi is 7.48.

Q: How did the pKi turn out when `O=C(NC1CCCCCC1)c1cn2c3c(cccc3c1=O)OCC2c1ccccc1` (racemic) was run?
A: The pKi was 9.09.

Q: With `CCC1COc2cccc3c(=O)c(C(=O)N(C(C)C)C(C)C)cn1c23` (racemic) as the molecule, how does the pKi read?
A: Its pKi is 7.07.

Q: How did the pKi turn out when `CC12CC3CC(C)(C1)CC(NC(=O)c1cn4c5c(cccc5c1=O)OCC4c1ccccc1)(C3)C2` (racemic) was run?
A: Its pKi is 8.46.

Q: With `O=C(NC12CC3CC(CC(C3)C1)C2)c1cn2c3c(cccc3c1=O)OC(c1ccccc1)C2c1ccccc1` (racemic) as the molecule, how does the pKi read?
A: The pKi was < 5.00.

Q: How did the pKi turn out when `C[C@H]1COc2cccc3c(=O)c(C(=O)NC45CC6CC(CC(C6)C4)C5)cn1c23` was run?
A: Its pKi is 7.11.

Q: With `CCC1COc2cccc3c(=O)c(C(=O)NC(C)CCC(C)C)cn1c23` (racemic) as the molecule, how does the pKi read?
A: Its pKi is 7.80.

target: T2, Cannabinoid receptor 2 (Rattus norvegicus, UniProt Q9QZN9); test: Displacement of [3H]CP-55940 from CB2 receptor in Sprague-Dawley rat spleen by scintillation counting
T2 sequence (Q9QZN9 whole entry): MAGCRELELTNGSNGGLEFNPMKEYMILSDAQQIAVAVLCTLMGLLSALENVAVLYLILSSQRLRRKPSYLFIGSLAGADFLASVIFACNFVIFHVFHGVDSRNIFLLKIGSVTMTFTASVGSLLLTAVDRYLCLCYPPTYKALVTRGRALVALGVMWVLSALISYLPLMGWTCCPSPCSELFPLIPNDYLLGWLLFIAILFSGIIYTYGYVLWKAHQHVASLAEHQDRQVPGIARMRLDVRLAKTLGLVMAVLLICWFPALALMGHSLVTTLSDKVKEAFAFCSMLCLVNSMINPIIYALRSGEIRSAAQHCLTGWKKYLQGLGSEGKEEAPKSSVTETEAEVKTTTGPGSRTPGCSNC

Q: With `O=C(NC12CC3CC(CC(C3)C1)C2)c1cn2c3c(cccc3c1=O)OCC2C1CC1` (racemic) as the molecule, how does the pKi read?
A: Its pKi is 7.99.

Q: How did the pKi turn out when `CCCC1COc2cccc3c(=O)c(C(=O)NC45CC6CC(CC(C6)C4)C5)cn1c23` (racemic) was run?
A: Its pKi is 8.56.

Q: With `CCC1COc2c(F)c(F)cc3c(=O)c(C(=O)NC45CC6CC(CC(C6)C4)C5)cn1c23` (racemic) as the molecule, how does the pKi read?
A: Its pKi is 7.43.

Q: With `O=C(NC1CCCCCC1)c1cn2c3c(cccc3c1=O)OCC2c1ccccc1` (racemic) as the molecule, how does the pKi read?
A: Its pKi is 7.83.

Q: With `CCC1COc2cccc3c(=O)c(C(=O)N(C(C)C)C(C)C)cn1c23` (racemic) as the molecule, how does the pKi read?
A: The pKi was 6.98.

Q: `CC12CC3CC(C)(C1)CC(NC(=O)c1cn4c5c(cccc5c1=O)OCC4c1ccccc1)(C3)C2` (racemic) was tested. Which pKi did it give?
A: Its pKi is 7.34.

Q: How did the pKi turn out when `O=C(NC12CC3CC(CC(C3)C1)C2)c1cn2c3c(cccc3c1=O)OC(c1ccccc1)C2c1ccccc1` (racemic) was run?
A: The pKi was < 5.00.

Q: With `C[C@H]1COc2cccc3c(=O)c(C(=O)NC45CC6CC(CC(C6)C4)C5)cn1c23` as the molecule, how does the pKi read?
A: Its pKi is 7.07.

Q: How did the pKi turn out when `CCC1COc2cccc3c(=O)c(C(=O)NC(C)CCC(C)C)cn1c23` (racemic) was run?
A: The pKi was 6.71.

species on record: Homo sapiens; test: Selectivity ratio of Ki for human recombinant CB1 receptor to KI for human recombinant CB2 receptor

Q: `O=C(NC12CC3CC(CC(C3)C1)C2)c1cn2c3c(cccc3c1=O)OCC2C1CC1` (racemic) was tested. Which Ratio Ki did it give?
A: The Ratio Ki was 44.

Q: For `CCCC1COc2cccc3c(=O)c(C(=O)NC45CC6CC(CC(C6)C4)C5)cn1c23` (racemic), which Ratio Ki is on record?
A: Its Ratio Ki is 92.

Q: With `CCC1COc2c(F)c(F)cc3c(=O)c(C(=O)NC45CC6CC(CC(C6)C4)C5)cn1c23` (racemic) as the molecule, how does the Ratio Ki read?
A: The Ratio Ki was 53.

Q: With `O=C(NC1CCCCCC1)c1cn2c3c(cccc3c1=O)OCC2c1ccccc1` (racemic) as the molecule, how does the Ratio Ki read?
A: The Ratio Ki was 383.

Q: For `CCC1COc2cccc3c(=O)c(C(=O)N(C(C)C)C(C)C)cn1c23` (racemic), which Ratio Ki is on record?
A: The Ratio Ki was > 118.

Q: `CC12CC3CC(C)(C1)CC(NC(=O)c1cn4c5c(cccc5c1=O)OCC4c1ccccc1)(C3)C2` (racemic) was tested. Which Ratio Ki did it give?
A: The Ratio Ki was 133.

Q: For `C[C@H]1COc2cccc3c(=O)c(C(=O)NC45CC6CC(CC(C6)C4)C5)cn1c23`, which Ratio Ki is on record?
A: The Ratio Ki was > 128.

Q: Which Ratio Ki does the source give for `CCC1COc2cccc3c(=O)c(C(=O)NC(C)CCC(C)C)cn1c23` (racemic) here?
A: Its Ratio Ki is > 633.

target: Cannabinoid receptor 1 (Rattus norvegicus, UniProt P20272); test: Displacement of [3H]CP-55940 from CB1 receptor in Sprague-Dawley rat brain by scintillation counting
Sequence (P20272 whole entry): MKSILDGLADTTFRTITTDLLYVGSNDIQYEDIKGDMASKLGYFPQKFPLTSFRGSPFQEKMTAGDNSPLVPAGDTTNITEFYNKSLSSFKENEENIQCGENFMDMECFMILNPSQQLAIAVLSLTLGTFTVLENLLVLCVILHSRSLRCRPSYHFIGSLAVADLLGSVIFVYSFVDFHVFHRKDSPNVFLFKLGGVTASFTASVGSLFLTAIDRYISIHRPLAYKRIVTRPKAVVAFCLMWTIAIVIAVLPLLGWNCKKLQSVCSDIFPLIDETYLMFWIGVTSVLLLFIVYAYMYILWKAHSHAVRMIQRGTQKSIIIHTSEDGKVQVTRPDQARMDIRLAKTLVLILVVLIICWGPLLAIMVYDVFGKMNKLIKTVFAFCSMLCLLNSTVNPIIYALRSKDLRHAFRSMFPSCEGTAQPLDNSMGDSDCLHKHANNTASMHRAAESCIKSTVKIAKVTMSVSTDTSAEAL

Q: `O=C(NC12CC3CC(CC(C3)C1)C2)c1cn2c3c(cccc3c1=O)OCC2C1CC1` (racemic) was tested. Which pKi did it give?
A: Its pKi is 6.32.

Q: How did the pKi turn out when `CCCC1COc2cccc3c(=O)c(C(=O)NC45CC6CC(CC(C6)C4)C5)cn1c23` (racemic) was run?
A: The pKi was 6.62.

Q: `CCC1COc2c(F)c(F)cc3c(=O)c(C(=O)NC45CC6CC(CC(C6)C4)C5)cn1c23` (racemic) was tested. Which pKi did it give?
A: The pKi was 5.74.

Q: With `O=C(NC1CCCCCC1)c1cn2c3c(cccc3c1=O)OCC2c1ccccc1` (racemic) as the molecule, how does the pKi read?
A: Its pKi is 6.43.

Q: With `CCC1COc2cccc3c(=O)c(C(=O)N(C(C)C)C(C)C)cn1c23` (racemic) as the molecule, how does the pKi read?
A: The pKi was < 5.00.

Q: `CC12CC3CC(C)(C1)CC(NC(=O)c1cn4c5c(cccc5c1=O)OCC4c1ccccc1)(C3)C2` (racemic) was tested. Which pKi did it give?
A: The pKi was 6.26.

Q: With `O=C(NC12CC3CC(CC(C3)C1)C2)c1cn2c3c(cccc3c1=O)OC(c1ccccc1)C2c1ccccc1` (racemic) as the molecule, how does the pKi read?
A: The pKi was < 5.00.

Q: `C[C@H]1COc2cccc3c(=O)c(C(=O)NC45CC6CC(CC(C6)C4)C5)cn1c23` was tested. Which pKi did it give?
A: Its pKi is < 5.00.

Q: `CCC1COc2cccc3c(=O)c(C(=O)NC(C)CCC(C)C)cn1c23` (racemic) was tested. Which pKi did it give?
A: Its pKi is < 5.00.
